Assay results: article PMC10638401, “Mannich-type modifications of (−)-cannabidiol and (−)-cannabigerol leading to new, bioactive derivatives” (Scientific Reports, 2023)
Converted amounts (≈) assume the structure as drawn.

Experiments:
A2780 cells = test: Antiproliferative MTT assay, 72 h; assay type: cell-based, human
In short: (§1)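 Cells seeded at 5000/well, grown overnight, then treated with 10 or 30 μM compound for 72 h. MTT added for 4 h, formazan dissolved in DMSO and read at 545 nm. Values are % proliferation inhibition versus untreated controls (0%), two experiments with five wells each.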

MCF7 cells = test: Antiproliferative MTT assay, 72 h; assay type: cell-based, human
In short: as §1

MDA-MB-231 cells = test: Antiproliferative MTT assay, 72 h; assay type: cell-based, human
In short: as §1

SiHa cells = test: Antiproliferative MTT assay, 72 h; assay type: cell-based, human
In short: as §1

SZ95 sebocytes = test: Nile Red-assay, spontaneous sebaceous lipogenesis; assay type: cell-based, human; details: 48 h
SARS-CoV-2 = SARS-CoV-2 immunofluorescence assay (nucleoprotein expression) in Vero E6 cells; assay type: cell-based; details: Severe acute respiratory syndrome coronavirus 2, Vero C1008, 72 h, three days
Description: CBD and CBG derivatives were further tested for their ability to inhibit SARS-CoV-2 replication in Vero E6 cells. Initially, the inhibition of virus-induced cytopathic effect was measured by addition of twofold serial dilutions of each derivative to the cells, followed by the infection with SARS-CoV-2 and determination of the cell viability 3 days post-infection by XTT assay. Concurrently, the cytotoxicity of each compound was assessed from identical dilutions in uninfected Vero E6 cells. To confirm anti-SARS-CoV-2 activity in the CPE inhibition assay, selected compounds were tested in immunofluorescence assay, where inhibition of SARS-CoV-2 replication was monitored as reduction in nucleoprotein expression using fluorescence microscope. […] Among the CBG derivatives, we can find quite cytotoxic and non-cytotoxic derivatives as well.
For CPE-based assay, two-fold fold serial dilutions of compounds from 100 µM were added in triplicate in a 384-well plate with 5000 Vero E6 cells in DMEM medium with 2% FBS, 100 U of penicillin/ml and 100 µg of streptomycin/ml (all Merck). After 1 h incubation SARS-CoV-2 (strain hCoV-19/Czech Republic/NRL_6632_2/2020) was added at multiplicity of infection […]. Following three days incubation at 37 °C in 5% CO2 the cell viability was determined by addition of XTT solution (Sigma-Aldrich) for 4 h and the absorbance was measured using EnVision plate reader (Perkin Elmer). Drug concentrations required to reduce viral cytopathic effect by 50% (EC50) were calculated using nonlinear regression from plots of percentage cell viability versus log10 drug concentration using GraphPad Prism (version 9.0.0, GraphPad Software, LLC). For immunofluorescence assay, two-fold fold serial dilutions of compounds from 100 µM were added in triplicate in 96-well plate with 15,000 Vero E6 cells plated day before in the same medium as above. After 1 h incubation, SARS-CoV-2 was added at multiplicity of infection 0.05 IU/cell. After three days of incubation, cells were fixed with 4% paraformaldehyde, permeabilized with 0.2% Triton X100 (both Merck), washed, incubated with anti-SARS-CoV-2antibody (mouse monoclonal antibody detecting SARS-CoV-2 nucleoprotein) for 2 h at room temperature. Followed by 1.5 h incubation with Cy3-labeled donkey anti-mouse IgG (Jackson ImmunoResearch Europe) and documented using fluorescence microscope with camera (Olympus). Images were processed in ImageJ software (NIH) and compound concentrations required to reduce fluorescence by 50% (EC50s) were calculated from plots of percentage of fluorescent cells versus log10 drug concentration using nonlinear regression analysis as above. Cytotoxicity was evaluated by incubating with the same two-fold serial dilutions of each compound as above with Vero E6 cells in 384-well plate.

in vitro = details: African green monkey
[1] = system: MSSA (Methicillin Sensitive Staphylococcus aureus); test: MIC, broth micro dilution; details: Staphylococcus aureus
Description: According to CLSI guideline the Minimal Inhibitory Concentrations (MICs) of the prepared compounds were determined with the broth micro dilution method. After an overnight growth on 5% bovine blood agar plates at 35 °C bacterial strains were suspended in physiological saline in order to reach the density of 0.5 McFarland for inoculation. Stock solutions containing different concentrations of the substances were prepared in DMSO and H2O (1:1). These were twofold serially diluted from 256 to 0.5 mg/l in Mueller–Hinton broth, and 100 ml of each dilution was inoculated with 10 ml of each bacterial suspension.

Compound | inhibition of the proliferation (in words) (A2780 cells; A2780, 10 μM) | inhibition at 30 µM (A2780 cells; Homo sapiens, A2780, 30 μM, read-out: inhibition of the proliferation) [%] | inhibition at 30 µM (MCF7 cells; Homo sapiens, MCF7, 30 μM, read-out: inhibition of the proliferation) [%] | inhibition of the proliferation (in words) (MCF7 cells; MCF7, 10 μM) | inhibition at 30 µM (MDA-MB-231 cells; Homo sapiens, MDA-MB-231, 30 μM, read-out: inhibition of the proliferation) [%] | inhibition of the proliferation (in words) (MDA-MB-231 cells; MDA-MB-231, 10 μM) | inhibition of the proliferation (in words) (SiHa cells; 10 μM) | inhibition at 30 µM (SiHa cells; Homo sapiens, 30 μM, read-out: inhibition of the proliferation) [%] | spontaneous, homeostatic sebaceous lipogenesis (lipid synthesis) (SZ95 sebocytes; 30 μM) | spontaneous, homeostatic sebaceous lipogenesis (SZ95 sebocytes; ≤ 10 μM) | EC50 (SARS-CoV-2) [µM] | CC50 (in vitro) [µM] | MIC [1] [µg/mL] | antiproliferative activity (in words) (A2780 cells; A2780, 10 and 30 μM) | antiproliferative activity (in words) (MCF7 cells; MCF7, 10 and 30 μM) | antiproliferative activity (in words) (MDA-MB-231 cells; MDA-MB-231, 10 and 30 μM) | antiproliferative activity (in words) (SiHa cells; 10 and 30 μM) | spontaneous, homeostatic sebaceous lipogenesis (SZ95 sebocytes; applied alone)
C=C(C)[C@@H]1CCC(C)=C[C@H]1c1c(O)cc(CCCCC)cc1O [Compound 1, (−)-Cannabidiol] | modest | ~90 | ~90 | modest | ~90 | negligible | negligible | ~90 | significant decrease in the lipid synthesis | no effect | 8.3 ± 0.28 | 12.1 ± 1.2 | 4 (≈ 12.7 µM) | – | – | – | – | –
C=C(C)[C@@H]1CCC(C)=C[C@H]1c1c(O)cc(CCCCC)c(COCC)c1O [Compound 9] | – | – | – | – | – | – | – | – | – | – | ~94 | > 100 | > 256 | None of the other tested CBD analogs (9, 11, and 12) exhibited substantial antiproliferative activity | None of the other tested CBD analogs (9, 11, and 12) exhibited substantial antiproliferative activity | None of the other tested CBD analogs (9, 11, and 12) exhibited substantial antiproliferative activity | None of the other tested CBD analogs (9, 11, and 12) exhibited substantial antiproliferative activity | rather promote spontaneous, homeostatic sebaceous lipogenesis
